Values quoted from earlier work as cited in article PMC8761874 (European Journal of Nuclear Medicine and Molecular Imaging, 2022).
Read-outs that look alike come from different tables or passages of the source.

Tests used:
[1] = tested on: PD-L1-positive non-small cell lung cancer; settings: tiragolumab plus atezolizumab, ref [15]
[2] = tested on: patients with advanced solid tumors; settings: ref [13]

Molecule: tiragolumab: anti-TIGIT mAb, given with atezolizumab in the CITYSCAPE trial
- objective response rate (ORR) ([1]; subgroup with high PD-L1 expression): 66%
- objective response rate (ORR) [1]: 37%

B1: MK-7684: anti-TIGIT mAb in a phase I trial (antibody, chains of the INN, looked up, V domains shown)
VH: EVQLVQSGAEVKKPGSSVKVSCKASGYTFSSYVMHWVRQAPGQGLEWIGYIDPYNDGAKYAQKFQGRVTLTSDKSTSTAYMELSSLRSEDTAVYYCARGGPYGWYFDVWGQGTTVTVSS
VL: DIQMTQSPSSLSASVGDRVTITCRASEHIYSYLSWYQQKPGKVPKLLIYNAKTLAEGVPSRFSGSGSGTDFTLTISSLQPEDVATYYCQHHFGSPLTFGQGTRLEIK
- partial response rate ([2]; in combination with pembrolizumab, n = 8/43): 19%
- partial response rate ([2]; monotherapy, n = 1/34): 3%
